Assay results reported in patent US20240336638A1, “IMIDAZOLE COMPOUND, AND INTERMEDIATE AND APPLICATION THEREOF” (priority 2021, published 2024).
Read-outs that look alike come from different tables or passages of the source.

Tests used:
[1] = test system: MCAO/R rats; assay: Therapeutic administration (i.v.) in middle cerebral artery occlusion/reperfusion (MCAO/R) rats; type: in vivo, rat; conditions: for Bleeding time / Brain water content (%) / Cerebral infarction rate (%) / Clotting time / Neurological function score: once a day for 3 days, mean ± SD, n = 8; for Neurological function score: modified Bederson score
Experimental: Male SD rats weighing 250 to 300 g were taken, and the rats in each group fasted for 12 hours before modeling, while water was not restricted. According to the method of Longa et al.^[1], a rat model of MCAO/R was established by occluding the blood flow of internal carotid artery using the thread embolization method. The rats were anesthetized with 3% chloral hydrate (300 mg/kg, 1 mL/100 g body weight) through intraperitoneal injection and fixed in the supine position on the operating table. A midline incision was made in the neck, and the right common carotid artery was isolated using forceps and threaded for later use. The external and internal carotid arteries were isolated from the bifurcation of the common carotid artery. A single thread was threaded through the internal carotid artery, and two threads were threaded through the external carotid artery. Both distal and proximal ends were ligated, and the middle part of the ligation site was cut using ophthalmic scissors. The proximal main trunk of the external carotid artery was isolated and reserved for later use. The prepared cotton thread was used to half-ligate the common carotid artery (tying a slipknot), and the thread prepared for the internal carotid artery was tightened with hemostatic forceps, temporarily occluding the blood flow of the internal carotid artery. A small incision at the proximal main trunk of the external carotid artery was made using ophthalmic scissors, and then, the fishing line was held with straight forceps, inserted from this incision, and slowly advanced through the isolated proximal main trunk of the external carotid artery towards the intracranial direction of the internal carotid artery. The advancement was stopped at a predetermined position, and then the thread of the internal carotid artery that was tightened with the hemostatic forceps was loosened. […] Another thread was threaded and tightened around the proximal main trunk of the external carotid artery and the fishing line that had already been inserted into the predetermined position. The half-ligated thread on the common carotid artery was then loosened, and the skin was subsequently sutured. After 2 hours of ischemia, a small section of the fishing line was pulled out. […] After rats in the blank control group were anesthetized, only the bifurcation of the internal and external carotid arteries was exposed without the occlusion of the MCA.
Successfully modeled rats (neurological function score of 3 after reperfusion) were taken and divided into 20 groups (8 rats for each) according to the random number table method. The groups were divided into a model control group, three dose groups (high, 12 mg/kg, 2.4 mg/mL; medium, 6 mg/kg, 1.2 mg/mL; low, 3 mg/kg, 0.6 mg/mL) for each of the six test compounds, and a positive drug Ozagrel group (6 mg/kg, 1.2 mg/mL), respectively. Both blank and model control groups were administered equal volumes of mixed solvents, and the rats in each group were administered by tail vein injection (i.v.) 2 hours after reperfusion, once a day for 3 consecutive days, with a volume of 0.5 mL/100 g body weight.
Ten minutes after the last administration, the neurological function of the animals was graded according to the modified Bederson scoring method. The standard is as follows[2]: • 0 point: no neurological symptoms; • 1 point: when the rat is suspended by lifting its tail, the forelimb on the surgical side of the rat was flexed and pressed against the chest wall; • 2 points: on a smooth plane, when the rat is pushed from the surgical side to the opposite side, the resistance is less than when it is moved to the same side; • 3 points: the animal moves around or in circles when moving freely; • 4 points: flaccid paralysis, no spontaneous movement of limbs.
After Bederson scoring, the rats were executed by cervical dislocation, and the whole brain was removed and weighed. After weighing, the whole brain was placed in a −20° C. refrigerator for 20 minutes. […]

[2] = Pharmacokinetics in SD rats after single IV and PO administration, plasma; type: in vivo; conditions: for Vd / AUC(0-inf) / AUC(0-t) / C0 / Cmax / Tmax / half-life / MRT last / MRT inf / bioavailability: Sprague-Dawley (SD), rat plasma; for Vd: rat, plasma, iv, 1 mg/kg; for MRT last: read-out: MRT(0−t); for MRT inf: read-out: MRT(0−∞); for bioavailability: PO 6 mg/kg vs IV 1 mg/kg
Experimental: The experimental method of administration by gavage injection in rats: SD rats weighing 180 to 220 g were fasted for 12 hours prior to the experiment, with free access to water. After administration, food and water were withheld for 4 hours. After this 4-hour period, the rats were allowed free access to water, and food was provided after 8 hours. The drugs were administered at a set dose. N=3, blood samples were taken before administration, and 5 minutes, 0.25 hours, 0.5 hours, 0.75 hours, 1 hour, 2 hours, 4 hours, 8 hours, and 24 hours after administration, respectively, and placed into sodium heparin anticoagulant tubes. The tubes were centrifuged for 1 hour at 4° C. and at 8000 rpm for 5 minutes, and the plasma was then separated and stored in centrifuge tubes at −70° C. for analysis. The experimental method of intravenous administration to rats: SD rats weighing 180 to 220 g were fasted for 12 hours prior to the experiment, with free access to water. After administration, food and water were withheld for 4 hours. After this 4-hour period, the rats were allowed free access to water, and food was provided after 8 hours. The drugs were administered at a set dose. N=3, blood samples were taken before administration, and 5 minutes, 0.25 hours, 0.5 hours, 0.75 hours, 1 hour, 2 hours, 4 hours, 8 hours, and 24 hours after administration, respectively, and placed into sodium heparin anticoagulant tubes. The tubes were centrifuged for 1 hour at 4° C. and at 8000 rpm for 5 minutes, and the plasma was then separated and stored in centrifuge tubes at −70° C. for analysis. The plasma concentration-time data were processed using the Phoenix® WinNonlin® 8.0 program to calculate pharmacokinetic parameters. Among them, Cmax and Tmax are measured values, the elimination rate constant k of the tail section of the C-t curve is obtained from the linear regression of LnC-t, and the value of AUC0-4 is calculated by the trapezoidal area method, and the area under the curve from 0 to ∞ time is AUC=AUC0-4+Ct/k. [table]

[3] = medium dose 6 mg/kg i.v. (Ozagrel group 6 mg/kg)

Row | SMILES | Bleeding time [1, 3] [s] | Brain water content (%) [1, 3] [%] | Cerebral infarction rate (%) [1, 3] [%] | Clotting time [1, 3] [s] | Neurological function score [1, 3] | Vd ([2]; IV 1 mg/kg, read-out: Vss) [L/kg] | Vd ([2]; IV 1 mg/kg, read-out: Vz) [L/kg] | AUC(0-inf) ([2]; IV 1 mg/kg) [ng·h/mL] | AUC(0-t) ([2]; IV 1 mg/kg) [ng·h/mL] | C0 ([2]; IV 1 mg/kg) [ng/mL] | Cmax ([2]; IV 1 mg/kg) [ng/mL] | Tmax ([2]; IV 1 mg/kg) [min] | half-life ([2]; IV 1 mg/kg) [min] | MRT last ([2]; IV 1 mg/kg) [min] | MRT inf ([2]; IV 1 mg/kg) [min] | AUC(0-inf) ([2]; PO 6 mg/kg) [ng·h/mL] | AUC(0-t) ([2]; PO 6 mg/kg) [ng·h/mL] | Cmax ([2]; PO 6 mg/kg) [ng/mL] | Tmax ([2]; PO 6 mg/kg) [min] | half-life ([2]; PO 6 mg/kg) [min] | further results
1 | O=C(O)[C@@H]1C[C@H]1c1ccc(Cn2cnc(F)c2)c(Cl)c1 [Compound 18, (1R,2R)-2-(3-Chloro-4-((4-fluoro-1H-imidazol-1-yl)methyl)phenyl)cyclopropane-1-carboxylic acid] | 271.63 ± 40.55 | 80.95 ± 1.79 | 20.75 | 158.19 ± 19.62 | 1.88 ± 0.83 | 0.2 | 0.21 | 70700 | 55900 | 6590 | 6340 | 4.98 | 622 | 464 | 857 | 757000 | 576000 | 41400 | 60 | 694 | Bleeding time ([1]; high dose 12 mg/kg i.v.): 330.25 ± 50.14 s; Brain water content (%) ([1]; high dose 12 mg/kg i.v.): 80.54 ± 1.62%; Cerebral infarction rate (%) ([1]; high dose 12 mg/kg i.v.): 17.78%; Clotting time ([1]; high dose 12 mg/kg i.v.): 147.25 ± 13.30 s; Neurological function score ([1]; high dose 12 mg/kg i.v.): 1.63 ± 0.52; Bleeding time ([1]; low dose 3 mg/kg i.v.): 267.38 ± 50.19 s; Brain water content (%) ([1]; low dose 3 mg/kg i.v.): 80.64 ± 2.21%; Cerebral infarction rate (%) ([1]; low dose 3 mg/kg i.v.): 26.58 ± 4.57%; Clotting time ([1]; low dose 3 mg/kg i.v.): 152.38 ± 28.67 s; Neurological function score ([1]; low dose 3 mg/kg i.v.): 2.25 ± 0.46; bioavailability [2]: 172%; MRT last ([2]; PO 6 mg/kg): 503 min; MRT inf ([2]; PO 6 mg/kg): 967 min; T1/2 and AUC(0-∞) in the whole body blood circulation system as compared to that of Ozagrel ([2]; intravenously at 1 mg/kg): significantly increased; T1/2 and AUC(0-∞) in the whole body blood circulation system as compared to that of Ozagrel ([2]; orally at 6 mg/kg): significantly increased
2 | O=C(O)[C@@H]1C[C@H]1c1ccc(Cn2ccnc2)cc1 [Compound 19, (1R,2R)-2-(4-((1H-Imidazol-1-yl)methyl)phenyl)cyclopropane-1-carboxylic acid] | 274.13 ± 47.46 | 81.92 ± 1.66 | 22.38 | 148.63 ± 28.41 | 2.00 ± 0.76 | 0.16 | 0.2 | 3250 | 3250 | 6870 | 5490 | 4.98 | 26.4 | 30 | 30.6 | 36600 | 36600 | 27300 | 15 | 43.2 | Bleeding time ([1]; high dose 12 mg/kg i.v.): 304.75 ± 35.16 s; Brain water content (%) ([1]; high dose 12 mg/kg i.v.): 80.84 ± 1.04%; Cerebral infarction rate (%) ([1]; high dose 12 mg/kg i.v.): 13.48%; Clotting time ([1]; high dose 12 mg/kg i.v.): 151.19 ± 21.35 s; Neurological function score ([1]; high dose 12 mg/kg i.v.): 1.75 ± 0.89; reducing the infarct area (smallest mean infarct rate) ([1]; high doses, comparison among test drugs): more advantageous; cerebral edema in rats ([1]; low and medium doses): did not significantly improve; Bleeding time ([1]; low dose 3 mg/kg i.v.): 272.38 ± 52.89 s; Brain water content (%) ([1]; low dose 3 mg/kg i.v.): 82.40 ± 1.50 %; Cerebral infarction rate (%) ([1]; low dose 3 mg/kg i.v.): 28.23 ± 2.76%; Clotting time ([1]; low dose 3 mg/kg i.v.): 136.25 ± 36.28 s; Neurological function score ([1]; low dose 3 mg/kg i.v.): 2.00 ± 0.53; bioavailability [2]: 188%; MRT last ([2]; PO 6 mg/kg): 71.4 min; MRT inf ([2]; PO 6 mg/kg): 72 min
3 | O=C(O)/C=C/c1ccc(Cn2ccnc2)cc1 [Ozagrel, reference compound] | 300.00 ± 26.93 | 79.73 ± 2.02 | 21.70 | 154.50 ± 16.91 | 1.50 ± 0.93 | 0.25 | 0.74 | 510 | 510 | 3670 | 1840 | 4.98 | 15.6 | 7.2 | 7.8 | 2680 | 2680 | 3780 | 15 | 43.8 | bioavailability [2]: 87.5%; MRT last ([2]; PO 6 mg/kg): 37.2 min; MRT inf ([2]; PO 6 mg/kg): 37.8 min
